Test results published in PubChem BioAssay (NCI).
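These data come from cells grown in 96-well plates and exposed to compound for 48 hours at five concentrations. TGI denotes the concentration required for complete inhibition of growth.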

Experiments:
Assay in all cases: DTP human tumour cell line panel, 48 h
[1] = system: A498 renal
[2] = system: A549 NSCLC
[3] = system: ACHN renal
[4] = system: BT-549 breast
[5] = system: CAKI-1 renal
[6] = system: CCRF-CEM leukemia
[7] = system: COLO 205 colon
[8] = system: DU-145 prostate
[9] = system: EKVX NSCLC
[10] = system: HCT-116 colon
[11] = system: HCT-15 colon
[12] = system: HL-60(TB) leukemia
[13] = system: HOP-62 NSCLC
[14] = system: HOP-92 NSCLC
[15] = system: HS 578T breast
[16] = system: HT29 colon
[17] = system: IGROV1 ovarian
[18] = system: K-562 leukemia
[19] = system: KM12 colon
[20] = system: LOX IMVI melanoma
[21] = system: M14 melanoma
[22] = system: MALME-3M melanoma
[23] = system: MCF7 breast
[24] = system: MDA-MB-231 breast
[25] = system: MDA-MB-435
[26] = system: MDA-N
[27] = system: MOLT-4 leukemia
[28] = system: NCI-H226 lung
[29] = system: NCI-H460 lung
[30] = system: NCI-H522 lung
[31] = system: NCI/ADR-RES ovarian
[32] = system: OVCAR-3 ovarian
[33] = system: OVCAR-5 ovarian
[34] = system: OVCAR-8 ovarian
[35] = system: PC-3 prostate
[36] = system: RPMI-8226 leukemia
[37] = system: RXF 393 renal
[38] = system: SF-268 CNS
[39] = system: SF-295 CNS
[40] = system: SF-539 CNS
[41] = system: SK-MEL-2 melanoma
[42] = system: SK-MEL-28 melanoma
[43] = system: SK-MEL-5 melanoma
[44] = system: SK-OV-3 ovarian
[45] = system: SN12C renal
[46] = system: SNB-19 CNS
[47] = system: SNB-75 CNS
[48] = system: SR leukemia
[49] = system: SW-620 colon
[50] = system: T-47D breast
[51] = system: TK-10 renal
[52] = system: U251 CNS
[53] = system: UACC-62 melanoma
[54] = system: UO-31 renal
[55] = system: 786-0 renal
[56] = system: HCC-2998 colon
[57] = system: NCI-H23 lung
[58] = system: OVCAR-4 ovarian
[59] = system: UACC-257 melanoma

Compound `CCCCCCOP(=O)(OCCCCCC)C(NC(=O)OCC)(C(F)(F)F)C(F)(F)F` has a TGI [1] of over 100 µM, a TGI [2] of over 100 µM and a TGI [3] of over 100 µM. It also gave a TGI [4] of 50.1 µM, a TGI [5] of over 100 µM and a TGI [6] of over 100 µM. For the same compound, the TGI [7] was 32.3 µM, the TGI [8] was over 100 µM and the TGI [9] was over 100 µM. For the same compound, the TGI [10] was 90.2 µM, the TGI [11] was over 100 µM and the TGI [12] was over 100 µM. For the same compound, the TGI [13] was over 100 µM, the TGI [14] was 93.4 µM and the TGI [15] was over 100 µM. For the same compound, the TGI [16] was over 100 µM, the TGI [17] was over 100 µM and the TGI [18] was over 100 µM. It also gave a TGI [19] of over 100 µM, a TGI [20] of 56.1 µM and a TGI [21] of over 100 µM. It also gave a TGI [22] of over 100 µM, a TGI [23] of over 100 µM and a TGI [24] of 56.6 µM. For the same compound, the TGI [25] was over 100 µM, the TGI [26] was over 100 µM and the TGI [27] was over 100 µM. It also gave a TGI [28] of 66.2 µM, a TGI [29] of over 100 µM and a TGI [30] of 52.6 µM. The TGI [31] was over 100 µM, the TGI [32] was over 100 µM and the TGI [33] was over 100 µM. For the same compound, the TGI [34] was over 100 µM, the TGI [35] was over 100 µM and the TGI [36] was over 100 µM. For the same compound, the TGI [37] was 76.9 µM, the TGI [38] was over 100 µM and the TGI [39] was over 100 µM. It also gave a TGI [40] of over 100 µM, a TGI [41] of 72.2 µM and a TGI [42] of over 100 µM. The TGI [43] was 44.1 µM, the TGI [44] was over 100 µM and the TGI [45] was over 100 µM. For the same compound, the TGI [46] was over 100 µM, the TGI [47] was over 100 µM and the TGI [48] was over 100 µM. It also gave a TGI [49] of over 100 µM, a TGI [50] of over 100 µM and a TGI [51] of over 100 µM. It also gave a TGI [52] of over 100 µM, a TGI [53] of over 100 µM and a TGI [54] of 72.2 µM.

In the case of `COC1(OC)CC(CO)(CNc2cc(Cl)nc(N)n2)C1`, the TGI [55] is reported as over 100 µM, the TGI [2] is reported as over 100 µM and the TGI [3] is reported as over 100 µM. The TGI [4] was over 100 µM, the TGI [5] was over 100 µM and the TGI [6] was over 100 µM. It also gave a TGI [7] of over 100 µM, a TGI [8] of over 100 µM and a TGI [9] of over 100 µM. The TGI [56] was over 100 µM, the TGI [10] was over 100 µM and the TGI [11] was over 100 µM. The TGI [12] was over 100 µM, the TGI [13] was over 100 µM and the TGI [15] was over 100 µM. It also gave a TGI [16] of over 100 µM, a TGI [17] of over 100 µM and a TGI [18] of over 100 µM. For the same compound, the TGI [19] was over 100 µM, the TGI [20] was over 100 µM and the TGI [22] was over 100 µM. It also gave a TGI [23] of over 100 µM, a TGI [24] of over 100 µM and a TGI [25] of over 100 µM. It also gave a TGI [26] of over 100 µM, a TGI [27] of over 100 µM and a TGI [28] of over 100 µM. The TGI [57] was over 100 µM, the TGI [29] was over 100 µM and the TGI [30] was over 100 µM. The TGI [31] was over 100 µM, the TGI [32] was over 100 µM and the TGI [58] was over 100 µM. The TGI [33] was over 100 µM, the TGI [34] was over 100 µM and the TGI [35] was over 100 µM. The TGI [36] was over 100 µM, the TGI [37] was over 100 µM and the TGI [38] was over 100 µM. The TGI [39] was over 100 µM, the TGI [40] was over 100 µM and the TGI [41] was over 100 µM. The TGI [42] was over 100 µM, the TGI [43] was over 100 µM and the TGI [44] was over 100 µM. For the same compound, the TGI [45] was over 100 µM, the TGI [46] was over 100 µM and the TGI [48] was over 100 µM. It also gave a TGI [49] of over 100 µM, a TGI [50] of over 100 µM and a TGI [51] of over 100 µM. It also gave a TGI [52] of over 100 µM, a TGI [59] of over 100 µM and a TGI [53] of over 100 µM. The TGI [54] was over 100 µM.

Compound `Cc1cc(NC[C@H](O)[C@H](O)[C@H](O)CO)c(Sc2cc(=O)[nH]c(=O)[nH]2)cc1C` has a TGI [55] of over 62.5 µM, a TGI [1] of over 62.5 µM and a TGI [2] of over 62.5 µM. It also gave a TGI [3] of over 62.5 µM, a TGI [4] of over 62.5 µM and a TGI [5] of over 62.5 µM. The TGI [6] was over 62.5 µM, the TGI [7] was over 62.5 µM and the TGI [8] was over 62.5 µM. For the same compound, the TGI [9] was over 62.5 µM, the TGI [56] was over 62.5 µM and the TGI [10] was over 62.5 µM. For the same compound, the TGI [11] was over 62.5 µM, the TGI [13] was over 62.5 µM and the TGI [14] was over 62.5 µM. The TGI [15] was over 62.5 µM, the TGI [16] was over 62.5 µM and the TGI [17] was over 62.5 µM. The TGI [18] was over 62.5 µM, the TGI [19] was over 62.5 µM and the TGI [20] was over 62.5 µM. It also gave a TGI [21] of over 62.5 µM, a TGI [22] of over 62.5 µM and a TGI [23] of over 62.5 µM. The TGI [24] was over 62.5 µM, the TGI [25] was over 62.5 µM and the TGI [26] was over 62.5 µM. The TGI [27] was over 62.5 µM, the TGI [28] was over 62.5 µM and the TGI [57] was over 62.5 µM. The TGI [29] was over 62.5 µM, the TGI [30] was over 62.5 µM and the TGI [31] was over 62.5 µM. The TGI [32] was over 62.5 µM, the TGI [58] was over 62.5 µM and the TGI [33] was over 62.5 µM. For the same compound, the TGI [34] was over 62.5 µM, the TGI [35] was over 62.5 µM and the TGI [36] was over 62.5 µM. It also gave a TGI [37] of over 62.5 µM, a TGI [38] of over 62.5 µM and a TGI [39] of over 62.5 µM. The TGI [41] was over 62.5 µM, the TGI [42] was over 62.5 µM and the TGI [43] was over 62.5 µM. For the same compound, the TGI [44] was over 62.5 µM, the TGI [45] was over 62.5 µM and the TGI [46] was over 62.5 µM. For the same compound, the TGI [47] was over 62.5 µM, the TGI [48] was over 62.5 µM and the TGI [49] was over 62.5 µM. It also gave a TGI [50] of over 62.5 µM, a TGI [51] of over 62.5 µM and a TGI [52] of over 62.5 µM. For the same compound, the TGI [59] was over 62.5 µM, the TGI [53] was over 62.5 µM and the TGI [54] was over 62.5 µM.

For `COC(=O)CCCC(=O)O`, the TGI [55] was over 100 µM, the TGI [1] was over 100 µM and the TGI [2] was over 100 µM. The TGI [3] was over 100 µM, the TGI [4] was over 100 µM and the TGI [5] was over 100 µM. For the same compound, the TGI [7] was over 100 µM, the TGI [8] was over 100 µM and the TGI [9] was over 100 µM. The TGI [10] was over 100 µM, the TGI [11] was over 100 µM and the TGI [13] was over 100 µM. It also gave a TGI [14] of over 100 µM, a TGI [15] of over 100 µM and a TGI [16] of over 100 µM. For the same compound, the TGI [17] was over 100 µM, the TGI [19] was over 100 µM and the TGI [20] was over 100 µM. It also gave a TGI [21] of over 100 µM, a TGI [22] of over 100 µM and a TGI [23] of over 100 µM. The TGI [24] was over 100 µM, the TGI [25] was over 100 µM and the TGI [26] was over 100 µM. It also gave a TGI [27] of over 100 µM, a TGI [28] of over 100 µM and a TGI [57] of over 100 µM. The TGI [29] was over 100 µM, the TGI [30] was over 100 µM and the TGI [31] was over 100 µM. It also gave a TGI [32] of over 100 µM, a TGI [58] of over 100 µM and a TGI [33] of over 100 µM. The TGI [34] was over 100 µM, the TGI [35] was over 100 µM and the TGI [37] was over 100 µM. It also gave a TGI [38] of over 100 µM, a TGI [39] of over 100 µM and a TGI [41] of over 100 µM. The TGI [42] was over 100 µM, the TGI [43] was over 100 µM and the TGI [45] was over 100 µM. It also gave a TGI [46] of over 100 µM, a TGI [47] of over 100 µM and a TGI [48] of over 100 µM. It also gave a TGI [49] of over 100 µM, a TGI [50] of over 100 µM and a TGI [51] of over 100 µM. It also gave a TGI [52] of over 100 µM, a TGI [59] of over 100 µM and a TGI [53] of over 100 µM. For the same compound, the TGI [54] was over 100 µM.
